Experimental data: article PMC8298264, “Function of cofactor Akirin2 in the regulation of gene expression in model human neutrophil-like HL60 cells” (Bioscience Reports, 2021)

Legend:
[1] = system: recombinant human Akirin2 (recAkirin2); assay: EpiTriton Histone Peptide Array, recAkirin2 binding (fluorescence); conditions: recAkirin2 vs HSP70, Student's t test and One-Way ANOVA (P<0.05), n=2 technical replicates
recAkirin2 [2] = molecular target: T1, recAkirin2 (Homo sapiens, UniProt Q53H80); assay: In vitro protein pull-down and Western blot of recAkirin2 with biotinylated histone H3.1 peptides; format: binding; design: DDK (FLAG) (C); purchased GenScript (E. coli) or OriGene (HEK293T); 'insect cells and E. coli'; conditions: streptavidin beads, 1 µg protein, 2 h at RT, Akirin2-specific antibody ab130473
T1 sequence (Q53H80 whole entry): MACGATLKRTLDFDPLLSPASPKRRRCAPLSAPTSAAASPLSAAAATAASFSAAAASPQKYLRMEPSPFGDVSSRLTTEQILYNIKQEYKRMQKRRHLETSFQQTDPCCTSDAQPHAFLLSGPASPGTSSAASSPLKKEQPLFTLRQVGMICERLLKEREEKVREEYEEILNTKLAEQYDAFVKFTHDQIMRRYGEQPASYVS

[3] = system: ELANE and LHX2 mRNA in human HL60 cells; assay: Akirin2 'distraction' by histone peptide transfection, ELANE and LHX2 mRNA by qRT-PCR; format: cell-based; conditions: 1.5 μg peptide per well, HL60 1 × 10^5 cells/well, harvested after 72 h; normalized to β-actin; unpaired t test P<0.05, n=3 biological replicates
AKR2 = system: AKR2; design: key: A: Very high confidence in the interaction; B: High confidence in the interaction; D: Moderate confidence in the interaction; conditions: AKR2-interacting proteins (IPs), physical interactome; ref https://doi.org/10.3390/vaccines8010077; cited from earlier work
Description: Supplement BSR-2021-1120_supp1.zip/BSR-2021-1120_suppST4.xlsx, sheet "BPs related to AKR2-IPs" | column: Predicted Biological Score (PBS)

recAkirin2 [4] = molecular target: T1, recAkirin2; assay: Akirin2–IP interactions in HL60 lysate, c-Myc pull-down and dot blot; format: binding; conditions: recAkirin2 on c-Myc beads with HL60 lysate, dot blot; compared with SNRNP70, Student's t test P<0.05, n=2 biological replicates
Method: Some of the previously identified Akirin2 IPs were selected for analysis of Akirin2–IP interactions in human HL60 cells. The HL60 cells were pelleted, washed with cold PBS and proteins were extracted by adding 1 ml of cold TBS supplemented with protease inhibitor cocktail (Complete Mini EDTA-free, Roche, Switzerland). Cells were disrupted passing through a 20 G needle and sonicated (3 min/cycle, 3 cycles, 25°C) until lysate was clear. Lysate was centrifuged at 12000×g for 30 min at 4°C, after which the supernatant was collected, and protein concentration was determined using the BCA Protein Assay using BSA as the standard. The COOH-(Myc-([…])-DDK)-tagged recAkirin2 produced in human cells was used for interactions with the identified Akirin2–IPs, mediator of RNA polymerase II transcription subunit 16 (THRAP5; Q9Y2X0), phosphatidylinositol transfer protein-α isoform (PITPNA; Q00169), protein Wnt-2 (WNT2; P09544), and splicing factor 3a subunit 1 (SF3A1; Q15459). The U1 small nuclear ribonucleoprotein 70 kDa (SNRNP70; P08621) was used as protein negative control. […] Area and percent analysis of each chemiluminescence dot signal were obtained and analyzed using Fiji program (ImageJ 1.52n; https://downloads.tomsguide.com/ImageJ,0301-31184.html). […]

tick SUB = conditions: cited from earlier work
Description: Epigenetic modifications of histone H3.1 at Lys amino acids has been involved in the regulation of transcription in different BPs and pathogen infection [[48–51]].

human HL60 cells = assay: SWATH-MS proteomics, differential protein representation, akirin2 KO vs WT HL60 cells; format: cell-based
Method: Total proteins were extracted from WT and akirin2 KO HL60 cells using the AllPrep DNA/RNA/Protein Mini Kit (Qiagen) and protein concentration was determined using the BCA Protein Assay with BSA (Sigma–Aldrich) as standard. Protein extracts (150 µg per sample, n=3 biological replicates) from each WT and KO cells were trypsin digested using the FASP Protein Digestion Kit (Expedeon Ltd., Abcam, Cambridge, U.K.) and sequencing grade trypsin (Promega, Madison, WI, U.S.A.) following manufacturer’s recommendations. The resulting peptides were finally desalted on to OMIX Pipette tips C18 (Agilent Technologies, Santa Clara, CA, U.S.A.), dried down and stored at −20 °C until mass spectrometry analysis. […] Three micrograms of each protein digest from the three biological replicates of WT and akirin2 KO HL60 cells were used for the generation of the reference spectral ion library as part of the SWATH-MS analysis.
Peptides were eluted in a 120-min gradient from 5 to 30% solvent B in solvent A followed by 15-min gradient from 30 to 60% solvent B in solvent A (solvent A: 0.1% formic acid in water, solvent B: 0.1% formic acid in acetonitrile) and directly injected into the mass spectrometer for analysis. For IDA experiments, the mass spectrometer was set to scanning full spectra (350–1400 m/z) using 250 ms accumulation time per spectrum, followed by up to 50 MS/MS scans (100–1500 m/z). Candidate ions with a charge state between +2 and +5 counts per second above a minimum threshold of 100 were isolated for fragmentation. One MS/MS spectrum was collected for 100 ms, before adding those precursor ions to the exclusion list for 15 s (mass spectrometer operated by Analyst TF 1.6, AB Sciex). Dynamic background subtraction was turned off. MS/MS analyses were recorded in high-sensitivity mode with rolling collision energy on and a collision energy spread of 5. For SWATH quantitative analysis, six independent samples (three replicates from WT and akirin2 KO HL60 cells, 5 µg each) were subjected to the cyclic DIA of mass spectra using the SWATH variable windows calculator (V 1.0, AB Sciex) and the SWATH acquisition method editor (AB Sciex), similar to established methods. […] For these experiments, a 50-ms survey scan (350–1400 m/z) was acquired at the beginning of each cycle, and SWATH–MS/MS spectra were collected from 100–1500 m/z for 70 ms at high-sensitivity mode, resulting in a cycle time of 3.6 s. Collision energy for each window was determined according to the calculation for a charge +2 ion-centered upon the window with a collision energy spread of 15. To create a spectral library of all the detectable peptides in the samples, the IDA MS raw files were combined and subjected to database search in unison using ProteinPilot software v. 5.0.1 (AB Sciex) with the Paragon algorithm. […] The detected protein threshold was set at 0.05. An independent false discovery rate (FDR) analysis, using the target–decoy approach provided by Protein Pilot (AB Sciex; https://sciex.com/products/software/proteinpilot-software), was used to assess the quality of identifications. Positive identifications were considered when identified proteins reached 1% of global FDR. […] Global normalization was performed according to the Total Area Sums (TAS) of all detected proteins in the samples. […] Heatmaps were prepared using the Heatmapper (http://www.heatmapper.ca/expression/) with average linkage and Euclidean distance measurement method.

[5] = KO vs WT, akirin2 KO vs WT HL60 cells, sheet "Under-represented in KO"
[6] = SWATH-MS, akirin2 KO vs WT HL60 cells, sheet "Under-represented in KO"
[7] = KO vs WT HL60 cells, sheet "Under-represented in KO"
[8] = akirin2 KO vs WT HL60 cells, sheet "Under-represented in KO"
[9] = SWATH-MS, akirin2 KO vs WT HL60 cells, over-represented in KO
[10] = Over-represented in KO, KO vs WT HL60 cells
[11] = SWATH-MS, akirin2 KO vs WT HL60 cells, under-represented in KO

In the case of “ARTKQTARKSTGGK(Me2)APRKQL-Peg-Biot [Peptide H3met, histone H3.1 amino acids 1–20 dimethylated at Lys^14, biotinylated]”, the “Akirin2–histone interaction by histone peptide array” value [1] is reported as “Akirin2–histone H3.1 interacting peptides” and the “recAkirin2–histone H3.1 peptide interaction by pull-down and Western blot” value (recAkirin2 [2]) is reported as “corroborated by in vitro protein pull-down and Western blot analysis”.
With “H2A: unrelated histone H2A (amino acids 1–17) peptide (Epicypher, Inc.) (SGRGKQGGKARAKAKTR; UniProt P0C0S8 2-18, looked up, fragment) [Peptide H2A]” the “Effect of transfection on gene expression (ELANE and LHX2 mRNA)” value [3] was “not the unrelated H2A or HEPES buffer affected gene expression”.
For RGPD3, the “Predicted Biological Score (PBS)” value (AKR2) is given as “A”.
In the case of RGPD5, the “Predicted Biological Score (PBS)” value (AKR2) is listed as “A”.
In the case of RGPD8, the “Predicted Biological Score (PBS)” value (AKR2) is listed as “A”.
With “SNRNP70: U1 small nuclear ribonucleoprotein 70 kDa (P08621), protein negative control” the “Akirin2–IP interaction” value (recAkirin2 [4]) was “low interaction with Akirin2”.
In the case of WDYHV1, the “Predicted Biological Score (PBS)” value (AKR2) is given as “A”.
For “histone H4 but: histone H4, amino acids 1–23 butyrylated at Lys 5, 8 and 12”, the “physical interaction with tick SUB” value (tick SUB) is given as “physical interaction”.
For sp¦Q01650¦LAT1_HUMAN, the “Fold Change” value (human HL60 cells; [5]) was 0.603 and the “Log (Fold Change)” value (human HL60 cells; [5]) was -0.2197.
In the case of sp¦Q02880¦TOP2B_HUMAN, the “Fold Change” value (human HL60 cells; [6]) is reported as 0.7738 and the “Log (Fold Change)” value (human HL60 cells; [6]) is reported as -0.1113.
In the case of sp¦Q07812¦BAX_HUMAN, the “Fold Change” value (human HL60 cells; [7]) is reported as 0.5501 and the “Log (Fold Change)” value (human HL60 cells; [7]) is reported as -0.2596.
For sp¦Q08945¦SSRP1_HUMAN, the “Fold Change” value (human HL60 cells; [8]) was 0.3484 and the “Log (Fold Change)” value (human HL60 cells; [8]) was -0.4579.
In the case of sp¦Q09666¦AHNK_HUMAN, the “Fold Change” value (human HL60 cells; [9]) is reported as 1.42 and the “Log (Fold Change)” value (human HL60 cells; [9]) is reported as 0.1523.
In the case of sp¦Q13283¦G3BP1_HUMAN, the “Fold Change” value (human HL60 cells; [10]) is reported as 1.326 and the “Log (Fold Change)” value (human HL60 cells; [10]) is reported as 0.1226.
In the case of sp¦Q14165¦MLEC_HUMAN, the “Fold Change” value (human HL60 cells; [11]) is reported as 0.7439 and the “Log (Fold Change)” value (human HL60 cells; [11]) is reported as -0.1285.
With sp¦Q14204¦DYHC1_HUMAN the “Fold Change” value (human HL60 cells; [8]) was 0.6536 and the “Log (Fold Change)” value (human HL60 cells; [8]) was -0.1847.
In the case of sp¦Q14289¦FAK2_HUMAN, the “Fold Change” value (human HL60 cells; [7]) is reported as 0.4591 and the “Log (Fold Change)” value (human HL60 cells; [7]) is reported as -0.3381.
With sp¦Q14692¦BMS1_HUMAN the “Fold Change” value (human HL60 cells; [5]) was 0.6053 and the “Log (Fold Change)” value (human HL60 cells; [5]) was -0.218.
For sp¦Q15056¦IF4H_HUMAN, the “Fold Change” value (human HL60 cells; [10]) was 1.397 and the “Log (Fold Change)” value (human HL60 cells; [10]) was 0.1451.
In the case of sp¦Q92608¦DOCK2_HUMAN, the “Fold Change” value (human HL60 cells; [7]) is reported as 0.4625 and the “Log (Fold Change)” value (human HL60 cells; [7]) is reported as -0.3349.
In the case of sp¦Q92616¦GCN1_HUMAN, the “Fold Change” value (human HL60 cells; [7]) is reported as 0.4921 and the “Log (Fold Change)” value (human HL60 cells; [7]) is reported as -0.3079.
